According to US11458126B2, “DHODH inhibitor for use in treating hematologic cancers” (PTC THERAPEUTICS, INC., priority 2017, dated 2022):

What was measured:
[1] = system: de novo pyrimidine nucleotide synthesis in HT1080 cells; assay: 15N-glutamine tracing study: pyrimidine nucleotide synthesis metabolites by LC-MS/MS; assay type: cell-based, human
Description: HT1080 cells in log phase growth were seeded in 10 cm dishes (4×10^6 cells/dish) and cultured in regular DMEM supplemented with 10% fetal bovine serum (FBS), penicillin (50 IU/mL), and streptomycin (50 μg/mL). After overnight incubation, the culture medium was replenished with glutamine free DMEM containing 1 g/L glucose, 10% fetal bovine serum (FBS), penicillin (50 IU/mL), streptomycin (50 μg/mL) and 1 mM ^15N-glutamine (Sigma, Cat #: 490024). After culturing for the indicated time in the presence of compounds or vehicle control (0.5% DMSO), the cells were washed once with cold PBS (5 mL) and harvested and lysed in cold distilled H2O (0.5 mL) with −80° C. methanol (1 mL) using a plastic cell scraper. The cell lysates were then centrifuged at 10,000×g for 15 minutes at 4° C., and supernatant collected for LC-MS/MS analysis of the ^15N-labelled de novo pyrimidine synthesis metabolites.
LC-MS/MS Detection of Metabolites. Quantification of ^15N-labelled de novo pyrimidine synthesis metabolites was carried out on an Accela pump and a PAL auto-sampler coupled to a TSQ Quantum Ultra mass spectrometer. The mass spectrometer was equipped with a heated electrospray ionization source operated in negative-ion mode (Thermo Fisher Scientific, Waltham, Mass.). The ion spray voltage was set at 2500 V, capillary temperature at 350° C., vaporizer temperature at 300° C.; sheath gas pressure at 50 units and auxiliary gas pressure at 5 units. A Thermo Fisher Scientific Hypercab column (3μ, 50×2.1 mm) was used and maintained at 50° C. for metabolite separation. Mobile phase A was 10 mM NH4HCO3 in water, pH 9.4, and mobile phase B was 10 mM NH4HCO3 in ACN-water (9:1). The flow rate was set at 0.50 mL/min.

[2] = system: HL-60 cells (human promyelocytic leukemia cells); assay: In vitro combination assay with HL-60 cells (Cell Titer Glo); assay type: cell-based; conditions: Homo sapiens, single agent, 111 nM, 72 hours, read-out: proliferative inhibition
Description: In vitro Combination Assay with HL-60 cells. […] HL-60 cells are reported to express the wild-type IDH2 gene/protein. […] Concentrations of enasidenib were tested at: 0, 0.1, 0.3, 1.3, 6.4, 32, 160, 800, 4,000 and 20,000 nM. The combinations were evaluated in a full checkerboard titration. The extent of proliferation at 72 hours was determined by addition of Cell Titer Glo, and the percent inhibition calculated as referenced to vehicle/DMSO treated HL-60 cells.

[3] = molecular target: DHODH (Homo sapiens, UniProt Q02127); assay: Pull-down with Cpd 1-linked Sepharose beads, Western blot; assay type: binding; parameters: 1 mL of cell lysate solution (2 mg/mL protein) was added to each reaction tube; endogenous in cells
Chain of DHODH (Q02127 whole entry): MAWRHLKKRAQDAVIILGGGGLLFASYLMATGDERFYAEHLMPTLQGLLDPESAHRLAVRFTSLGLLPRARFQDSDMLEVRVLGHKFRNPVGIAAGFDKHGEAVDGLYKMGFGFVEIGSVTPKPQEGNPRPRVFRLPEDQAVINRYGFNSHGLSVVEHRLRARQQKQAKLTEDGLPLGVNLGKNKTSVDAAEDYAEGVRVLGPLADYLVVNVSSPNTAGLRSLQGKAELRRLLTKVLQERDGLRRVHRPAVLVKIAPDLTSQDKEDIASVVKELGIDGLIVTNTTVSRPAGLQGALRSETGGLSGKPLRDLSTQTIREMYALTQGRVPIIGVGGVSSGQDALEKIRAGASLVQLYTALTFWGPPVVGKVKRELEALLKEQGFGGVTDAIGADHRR
Excerpt: Western Blot Analysis. […] Subsequently, the conditioned medium was harvested by mixing with equal volume of 2×SDS-PAGE sample buffer (Bio-Rad). […] Proteins in the samples were resolved on a Tris-glycine Criterion gel (Bio-Rad) and transferred onto a 0.45 μm nitrocellulose membrane. […] Antibody (C1) specific for VEGFA was purchased from Santa Cruz Biotechnologies, CA (1:200 dilution); Antibody specific for human β-actin was purchased from Abcam (1:10000 dilution); Antibody specific for V5-tag was purchased from Invitrogen (1:5000 dilution). […] Immunodetection was done using the corresponding secondary antibodies conjugated with infrared dyes or horseradish peroxide. The expression levels of proteins were detected with Odyssey (LI-COR) or using enhanced chemiluminescence (Pierce, Rockford, Ill.).
The wet Sepharose 6B was diluted with pH 11 phosphate/NaOH buffer (5 mL). […] The reaction mixture was stirred further 24 hours at 40° C.
Cells in log phase growth were washed with cold PBS once and then collected by trypsin digestion. […] Proteins in the eluted samples were identified via LC-MS/MS or western blot analysis.

[4] = system: prohibitin; assay: Pull-down with Cpd 1-linked Sepharose beads, Western blot (control protein); assay type: binding, human; conditions: Western blot (FIG. 2a)
Description: Western Blot Analysis. Cells were treated with test compounds for 24 to 48 hours as indicated in the Results section. Subsequently, the conditioned medium was harvested by mixing with equal volume of 2×SDS-PAGE sample buffer (Bio-Rad). Whole-cell extracts were obtained by lysing cells either directly in 1×SDS-PAGE sample buffer (Bio-Rad) or in M-PER lysis buffer containing 150 mmol/L NaCl, 2 mmol/L EDTA and 1× Halt protease inhibitors (Pierce, Rockford, Ill.). Proteins in the samples were resolved on a Tris-glycine Criterion gel (Bio-Rad) and transferred onto a 0.45 μm nitrocellulose membrane. The membranes were then immunoblotted with specific antibodies indicated in the Results section. Antibody (C1) specific for VEGFA was purchased from Santa Cruz Biotechnologies, CA (1:200 dilution); Antibody specific for human β-actin was purchased from Abcam (1:10000 dilution); Antibody specific for V5-tag was purchased from Invitrogen (1:5000 dilution). Antibody specific for DHODH was purchased from Proteintech (Cat #: 14877-1-AP, 1:500 dilution); and antibody specific for human prohibitin was purchased from Thermo Scientific (Cat #: PA5-12274 and PA5-14133, 1:1000 dilution). […] The expression levels of proteins were detected with Odyssey (LI-COR) or using enhanced chemiluminescence (Pierce, Rockford, Ill.). […]

[5] = cells treated 100 nm for 8 hours in presence of 15N-glutamine, BLDL = Below Detection Limits

COc1ccc([C@H]2c3[nH]c4ccc(Cl)cc4c3CCN2C(=O)Oc2ccc(Cl)cc2)cc1 [Cpd 1, 4-chlorophenyl (S)-6-chloro-1-(4-methoxyphenyl)-1,3,4,9-tetrahydro-2H-pyrido[3,4-b]indole-2-carboxylate]
de novo pyrimidine synthesis (15N-labelled CTP, UTP and UMP) ([1]; HT1080 cells, LCMS (FIG. 1b)): inhibits de novo pyrimidine synthesis
^15N-Orotate ([1]; cells treated 100 nm for 8 hours in presence of 15N-glutamine): 44.8 ± 6.1 µM
^15N-DHO [1, 5]: 18.1 ± 5.5 µM
^15N-UMP [1, 5]: BLDL
pyrazofurin-MP-induced increase of 15N-orotate ([1]; co-treatment with pyrazofurin-MP, HT1080 cells (FIG. 1c)): blocked
inhibition at 0.111 µM [2]: ~20%
competitive elution of DHODH from Cpd 1 beads by free compound ([3]; Competing Off (FIG. 2b)): selectively eluted
binding of DHODH to Cpd 1-linked beads after preincubation with free compound ([3]; Competing On, Western blot (FIG. 2a)): inhibited
binding of prohibitin to Cpd 1-linked beads after preincubation with free compound [4]: not blocked
